In ChEMBL document CHEMBL1914417 (Bioorg Med Chem Lett, 2011):

Assays:
[1] = target: T1, Muscarinic acetylcholine receptor M2 (Rattus norvegicus, UniProt P10980); assay: Agonist activity at rat muscarinic M2 receptor expressed in CHO cells; assay type: functional, cell-based
T1 sequence (P10980 whole entry): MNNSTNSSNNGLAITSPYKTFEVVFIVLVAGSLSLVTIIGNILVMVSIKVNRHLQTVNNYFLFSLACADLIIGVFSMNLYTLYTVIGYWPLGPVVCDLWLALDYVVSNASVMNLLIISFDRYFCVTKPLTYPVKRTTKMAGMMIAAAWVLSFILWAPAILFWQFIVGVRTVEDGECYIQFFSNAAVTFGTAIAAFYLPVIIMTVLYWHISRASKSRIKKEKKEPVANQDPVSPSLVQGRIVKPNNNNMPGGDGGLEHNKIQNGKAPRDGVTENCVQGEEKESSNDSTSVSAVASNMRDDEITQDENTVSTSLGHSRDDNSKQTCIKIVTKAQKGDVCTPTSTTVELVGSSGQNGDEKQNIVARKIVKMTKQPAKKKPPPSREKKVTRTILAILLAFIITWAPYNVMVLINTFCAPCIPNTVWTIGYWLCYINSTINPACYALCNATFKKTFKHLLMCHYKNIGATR

[2] = target: T2, Muscarinic acetylcholine receptor M1 (Rattus norvegicus, UniProt P08482); assay: Agonist activity at rat muscarinic M1 receptor expressed in CHO cells; assay type: functional, cell-based
T2 sequence (P08482 whole entry): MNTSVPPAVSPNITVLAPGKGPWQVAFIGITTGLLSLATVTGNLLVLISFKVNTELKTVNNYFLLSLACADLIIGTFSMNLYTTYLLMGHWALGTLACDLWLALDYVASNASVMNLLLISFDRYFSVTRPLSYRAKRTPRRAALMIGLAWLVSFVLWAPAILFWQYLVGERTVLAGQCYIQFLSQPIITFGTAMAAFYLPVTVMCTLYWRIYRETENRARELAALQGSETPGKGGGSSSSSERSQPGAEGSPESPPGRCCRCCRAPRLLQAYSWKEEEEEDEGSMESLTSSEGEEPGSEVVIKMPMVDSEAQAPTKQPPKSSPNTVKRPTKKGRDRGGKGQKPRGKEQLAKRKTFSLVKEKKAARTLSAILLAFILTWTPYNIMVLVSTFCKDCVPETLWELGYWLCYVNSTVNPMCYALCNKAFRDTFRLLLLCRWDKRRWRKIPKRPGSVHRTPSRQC

[3] = target: T3, Muscarinic acetylcholine receptor M5 (Rattus norvegicus, UniProt P08911); assay: Agonist activity at rat recombinant muscarinic M5 receptor by HTS cell based assay; assay type: functional
T3 sequence (P08911 whole entry): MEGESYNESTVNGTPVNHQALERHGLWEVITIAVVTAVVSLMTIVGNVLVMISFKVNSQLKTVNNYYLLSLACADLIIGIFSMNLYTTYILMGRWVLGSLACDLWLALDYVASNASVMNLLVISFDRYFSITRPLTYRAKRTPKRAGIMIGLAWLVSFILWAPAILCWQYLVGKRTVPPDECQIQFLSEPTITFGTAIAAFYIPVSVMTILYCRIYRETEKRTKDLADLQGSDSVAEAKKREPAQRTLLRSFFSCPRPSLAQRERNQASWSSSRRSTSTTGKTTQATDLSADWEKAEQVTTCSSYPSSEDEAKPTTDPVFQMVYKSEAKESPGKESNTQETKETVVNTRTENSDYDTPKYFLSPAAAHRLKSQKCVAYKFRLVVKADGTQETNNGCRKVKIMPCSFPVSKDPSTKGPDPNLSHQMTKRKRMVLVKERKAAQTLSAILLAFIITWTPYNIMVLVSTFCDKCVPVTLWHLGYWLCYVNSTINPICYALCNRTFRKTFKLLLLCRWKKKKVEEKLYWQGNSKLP

[4] = target: Muscarinic acetylcholine receptor M3 (Rattus norvegicus, UniProt P08483); assay: Agonist activity at rat recombinant muscarinic M3 receptor by HTS cell based assay; assay type: functional
[5] = target: T1, Muscarinic acetylcholine receptor M2; assay: Agonist activity at rat recombinant muscarinic M2 receptor by HTS cell based assay; assay type: functional
[6] = target: T4, Muscarinic acetylcholine receptor M4 (Homo sapiens, UniProt P08173); assay: Agonist activity at human recombinant muscarinic M4 receptor by HTS cell based assay; assay type: functional
T4 sequence (P08173 whole entry): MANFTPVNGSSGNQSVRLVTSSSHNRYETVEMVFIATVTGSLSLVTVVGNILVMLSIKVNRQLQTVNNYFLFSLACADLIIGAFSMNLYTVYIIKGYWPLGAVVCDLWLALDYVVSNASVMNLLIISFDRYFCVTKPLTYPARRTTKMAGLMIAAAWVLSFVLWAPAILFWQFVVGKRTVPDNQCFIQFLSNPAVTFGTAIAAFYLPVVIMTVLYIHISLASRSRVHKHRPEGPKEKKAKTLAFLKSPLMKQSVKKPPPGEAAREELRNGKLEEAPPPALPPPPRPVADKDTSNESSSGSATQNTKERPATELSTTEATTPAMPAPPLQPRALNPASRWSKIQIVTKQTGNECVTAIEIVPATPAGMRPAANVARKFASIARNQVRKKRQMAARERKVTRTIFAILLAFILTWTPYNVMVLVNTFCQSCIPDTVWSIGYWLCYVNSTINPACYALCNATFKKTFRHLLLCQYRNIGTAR

[7] = target: T5, Muscarinic acetylcholine receptor M1 (Rattus norvegicus) (UniProt P08482); assay: Agonist activity at rat muscarinic M1 receptor expressed in CHO cells relative to acetylcholine; assay type: functional, cell-based
T5 sequence (whole entry): T2 sequence (P08482 whole entry)

[8] = target: T3, Muscarinic acetylcholine receptor M5; assay: Agonist activity at rat muscarinic M5 receptor expressed in CHO cells; assay type: functional, cell-based
[9] = target: T6, Muscarinic acetylcholine receptor M5 (Homo sapiens, UniProt P08912); assay: Agonist activity at human recombinant muscarinic M5 receptor by HTS cell based assay; assay type: functional
T6 sequence (P08912 whole entry): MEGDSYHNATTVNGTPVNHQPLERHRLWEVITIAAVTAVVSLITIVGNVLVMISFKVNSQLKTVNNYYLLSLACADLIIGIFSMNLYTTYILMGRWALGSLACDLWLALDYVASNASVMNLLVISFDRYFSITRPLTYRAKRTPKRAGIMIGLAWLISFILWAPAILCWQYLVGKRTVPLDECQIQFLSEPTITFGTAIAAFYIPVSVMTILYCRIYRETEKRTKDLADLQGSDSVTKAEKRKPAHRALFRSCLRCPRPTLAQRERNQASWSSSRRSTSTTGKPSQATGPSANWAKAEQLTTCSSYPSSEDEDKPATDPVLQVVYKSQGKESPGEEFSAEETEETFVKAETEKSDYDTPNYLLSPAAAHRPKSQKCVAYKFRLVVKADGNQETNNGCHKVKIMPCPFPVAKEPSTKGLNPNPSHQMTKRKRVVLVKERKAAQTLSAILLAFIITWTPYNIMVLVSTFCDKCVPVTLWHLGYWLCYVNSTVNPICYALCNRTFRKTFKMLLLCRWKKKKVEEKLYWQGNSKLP

[10] = target: Muscarinic acetylcholine receptor M3 (Homo sapiens, UniProt P20309); assay: Agonist activity at human recombinant muscarinic M3 receptor by HTS cell based assay; assay type: functional
[11] = target: T2, Muscarinic acetylcholine receptor M1; assay: Agonist activity at rat recombinant muscarinic M1 receptor by HTS cell based assay; assay type: functional

Sequence of Muscarinic acetylcholine receptor M3 (Homo sapiens, UniProt P20309) (P20309 whole entry): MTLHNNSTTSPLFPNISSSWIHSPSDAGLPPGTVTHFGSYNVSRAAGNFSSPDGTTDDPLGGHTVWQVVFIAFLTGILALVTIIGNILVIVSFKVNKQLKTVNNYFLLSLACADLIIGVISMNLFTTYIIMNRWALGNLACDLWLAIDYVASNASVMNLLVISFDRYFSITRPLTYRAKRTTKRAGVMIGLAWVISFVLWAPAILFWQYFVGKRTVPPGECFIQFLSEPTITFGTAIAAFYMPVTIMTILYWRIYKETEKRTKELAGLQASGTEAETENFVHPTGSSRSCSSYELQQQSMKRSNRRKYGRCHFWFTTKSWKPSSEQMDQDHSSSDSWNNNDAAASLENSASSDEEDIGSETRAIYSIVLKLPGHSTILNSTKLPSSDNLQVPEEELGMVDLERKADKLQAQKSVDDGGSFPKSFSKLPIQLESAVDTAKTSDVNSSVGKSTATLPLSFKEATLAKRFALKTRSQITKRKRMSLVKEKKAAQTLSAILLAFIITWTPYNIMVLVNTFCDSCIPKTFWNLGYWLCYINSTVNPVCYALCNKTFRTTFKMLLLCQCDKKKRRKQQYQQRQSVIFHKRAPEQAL
Sequence of Muscarinic acetylcholine receptor M3 (Rattus norvegicus, UniProt P08483) (P08483 whole entry): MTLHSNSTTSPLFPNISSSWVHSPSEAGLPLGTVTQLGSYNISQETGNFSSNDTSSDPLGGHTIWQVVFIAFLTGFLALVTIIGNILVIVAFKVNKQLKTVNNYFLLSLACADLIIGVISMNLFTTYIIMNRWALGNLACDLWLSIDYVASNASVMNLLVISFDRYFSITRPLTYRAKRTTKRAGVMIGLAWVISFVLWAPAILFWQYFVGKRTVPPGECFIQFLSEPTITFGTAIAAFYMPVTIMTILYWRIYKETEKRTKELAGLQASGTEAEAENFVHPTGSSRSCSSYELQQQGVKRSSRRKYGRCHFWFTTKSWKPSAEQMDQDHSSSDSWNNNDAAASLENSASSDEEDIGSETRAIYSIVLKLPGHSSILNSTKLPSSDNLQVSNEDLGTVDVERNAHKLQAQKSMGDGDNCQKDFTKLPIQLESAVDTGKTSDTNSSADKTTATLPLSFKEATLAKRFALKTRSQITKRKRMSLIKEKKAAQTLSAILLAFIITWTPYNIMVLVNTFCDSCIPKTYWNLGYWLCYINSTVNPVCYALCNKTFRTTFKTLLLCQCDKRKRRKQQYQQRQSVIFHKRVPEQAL

| SMILES | EC50 [1] [µM] | EC50 ([2]; cho) [µM] | EC50 [3] [µM] | EC50 [4] [µM] | EC50 [5] [µM] | EC50 [6] [µM] | Emax [7] [%] | EC50 [8] [µM] | EC50 [9] [µM] | EC50 [10] [µM] | EC50 [11] [µM] | EC50 [2] [µM] |
| --- | --- | --- | --- | --- | --- | --- | --- | --- | --- | --- | --- | --- |
| CCOC(=O)N1CCC(NCCNC(=O)c2ccccc2C)CC1 | > 30 | 0.2 | > 30 | > 30 | > 30 | > 30 | 81 | > 30 | > 30 | > 30 | 2.3 |  |
| CCOC(=O)N1CCC(N2CCC[C@@H](NC(=O)c3ccccc3C)C2)CC1 | > 30 |  | > 30 | > 30 | > 30 | > 30 | 96 | > 30 | > 30 | > 30 | 1.3 | 0.11 |
